In ChEMBL document CHEMBL4152249, “Alkoxyphenylthiazoles with broad-spectrum activity against multidrug-resistant gram-positive bacterial pathogens” (Eur J Med Chem, 2018):
In brackets after ≈: the same amount, converted by molar mass.

Key:
Staphylococcus aureus [1] = assay: Antibacterial activity against vancomycin-resistant Staphylococcus aureus VRSA10 after 20 hrs by broth microdilution assay; assay type: functional; settings: VRSA10, 20 h
Staphylococcus aureus [2] = assay: Bactericidal activity against Staphylococcus aureus USA300 NRS384 incubated for 20 hrs followed by re-plating on tryptic soy agar plates at 37 degC for 18 hrs by broth microdilution assay; assay type: functional
Streptococcus pneumoniae [3] = assay: Bactericidal activity against methicillin-resistant Streptococcus pneumoniae ATCC 700677 incubated for 20 hrs followed by re-plating on tryptic soy agar plates at 37 degC for 18 hrs by broth microdilution assay; assay type: functional
Staphylococcus aureus [4] = assay: Bactericidal activity against linezolid-resistant Staphylococcus aureus NRS119 incubated for 20 hrs followed by re-plating on tryptic soy agar plates at 37 degC for 18 hrs by broth microdilution assay; assay type: functional
Staphylococcus aureus [5] = assay: Bactericidal activity against methicillin-resistant Staphylococcus aureus NRS385 incubated for 20 hrs followed by re-plating on tryptic soy agar plates at 37 degC for 18 hrs by broth microdilution assay; assay type: functional
Enterococcus faecium [6] = assay: Bactericidal activity against vancomycin-resistant Enterococcus faecium ATCC 700221 incubated for 20 hrs followed by re-plating on tryptic soy agar plates at 37 degC for 18 hrs by broth microdilution assay; assay type: functional
Staphylococcus aureus [7] = assay: Antibacterial activity against vancomycin-resistant Staphylococcus aureus VRSA12 after 20 hrs by broth microdilution assay; assay type: functional; settings: VRSA12, 20 h
Listeria monocytogenes [8] = assay: Bactericidal activity against Listeria monocytogenes ATCC 19111 incubated for 20 hrs followed by re-plating on tryptic soy agar plates at 37 degC for 18 hrs by broth microdilution assay; assay type: functional
Staphylococcus aureus [9] = assay: Antibacterial activity against methicillin-resistant Staphylococcus aureus after 20 hrs by broth microdilution assay; assay type: functional
Staphylococcus aureus [10] = assay: Antibacterial activity against methicillin-resistant Staphylococcus aureus 2658 RCMB after 20 hrs by broth microdilution assay; assay type: functional
Listeria monocytogenes [11] = assay: Antibacterial activity against Listeria monocytogenes ATCC 19111 after 20 hrs by broth microdilution assay; assay type: functional; settings: ATCC 19111, 20 h
Caco-2 = assay: Cytotoxicity against human Caco2 cells assessed as effect on cell viability up to 64 ug/ml after 2 hrs by MTS assay; assay type: cell-based; settings: caco-2, 2 h
Staphylococcus aureus [12] = assay: Bactericidal activity against vancomycin-resistant Staphylococcus aureus VRSA12 incubated for 20 hrs followed by re-plating on tryptic soy agar plates at 37 degC for 18 hrs by broth microdilution assay; assay type: functional
Staphylococcus aureus [13] = assay: Bactericidal activity against vancomycin-resistant Staphylococcus aureus VRSA10 incubated for 20 hrs followed by re-plating on tryptic soy agar plates at 37 degC for 18 hrs by broth microdilution assay; assay type: functional
Streptococcus pneumoniae [14] = assay: Antibacterial activity against cephalosporin-resistant Streptococcus pneumoniae ATCC 51916 after 20 hrs by broth microdilution assay; assay type: functional; settings: ATCC 51916, 20 h
Staphylococcus aureus [15] = assay: Bactericidal activity against methicillin-resistant Staphylococcus aureus NRS386 incubated for 20 hrs followed by re-plating on tryptic soy agar plates at 37 degC for 18 hrs by broth microdilution assay; assay type: functional
Streptococcus pneumoniae [16] = assay: Bactericidal activity against cephalosporin-resistant Streptococcus pneumoniae ATCC 51916 incubated for 20 hrs followed by re-plating on tryptic soy agar plates at 37 degC for 18 hrs by broth microdilution assay; assay type: functional
Staphylococcus aureus [17] = assay: Antibacterial activity against methicillin-resistant Staphylococcus aureus NRS386 after 20 hrs by broth microdilution assay; assay type: functional; settings: NRS386, 20 h
Staphylococcus aureus [18] = assay: Antibacterial activity against methicillin-resistant Staphylococcus aureus NRS385 after 20 hrs by broth microdilution assay; assay type: functional; settings: NRS385, 20 h
Enterococcus faecalis [19] = assay: Antibacterial activity against vancomycin-resistant Enterococcus faecalis ATCC 51299 after 20 hrs by broth microdilution assay; assay type: functional; settings: ATCC 51299, 20 h
[20] = system: Staphylococcus epidermidis; assay: Bactericidal activity against methicillin-resistant Staphylococcus epidermidis NRS101 incubated for 20 hrs followed by re-plating on tryptic soy agar plates at 37 degC for 18 hrs by broth microdilution assay; assay type: functional
Staphylococcus aureus [21] = assay: Bactericidal activity against methicillin-sensitive Staphylococcus aureus NRS107 incubated for 20 hrs followed by re-plating on tryptic soy agar plates at 37 degC for 18 hrs by broth microdilution assay; assay type: functional
Enterococcus faecium [22] = assay: Antibacterial activity against vancomycin-resistant Enterococcus faecium ATCC 700221 after 20 hrs by broth microdilution assay; assay type: functional; settings: ATCC 700221, 20 h
Streptococcus pneumoniae [23] = assay: Antibacterial activity against methicillin-resistant Streptococcus pneumoniae ATCC 700677 after 20 hrs by broth microdilution assay; assay type: functional; settings: ATCC 700677, 20 h
[24] = system: Staphylococcus epidermidis; assay: Antibacterial activity against methicillin-resistant Staphylococcus epidermidis NRS101 after 20 hrs by broth microdilution assay; assay type: functional; settings: NRS101, 20 h
Enterococcus faecalis [25] = assay: Bactericidal activity against vancomycin-resistant Enterococcus faecalis ATCC 51299 incubated for 20 hrs followed by re-plating on tryptic soy agar plates at 37 degC for 18 hrs by broth microdilution assay; assay type: functional
Staphylococcus aureus [26] = assay: Bactericidal activity against Staphylococcus aureus USA400 NRS123 incubated for 20 hrs followed by re-plating on tryptic soy agar plates at 37 degC for 18 hrs by broth microdilution assay; assay type: functional
Staphylococcus aureus [27] = assay: Antibacterial activity against Staphylococcus aureus after 20 hrs by broth microdilution assay; assay type: functional
Listeria monocytogenes [28] = assay: Ratio of MBC to MIC for Listeria monocytogenes ATCC 19111; assay type: functional
[29] = Selectivity index, ratio of compound effect for human Caco2 cells at maximum non-toxic concentration concentration to MIC for vancomycin-resistant Enterococcus faecalis ATCC 51299; assay type: toxicity; settings: Caco-2 cells, read-out: Selectivity Index
Staphylococcus aureus [30] = assay: Bactericidal activity against Staphylococcus aureus USA400 assessed as reduction in colony forming unit at 6 times MIC treated for 2 hrs followed by re-plating on tryptic soy agar plates at 37 degC for 18 to 20 hrs by broth microdilution assay; assay type: functional; parameters: scale not given: the % may be the effect or the level left
Staphylococcus aureus [31] = assay: Antibacterial activity against methicillin-resistant Staphylococcus aureus USA400 NRS123 assessed as ratio of MIC after and before 14 passages over 2 weeks by broth microdilution method; assay type: functional
[32] = Selectivity index, ratio of compound effect for human Caco2 cells at maximum non-toxic concentration concentration to MIC for Listeria monocytogenes ATCC 19111; assay type: toxicity; settings: Caco-2 cells, read-out: Selectivity Index
Enterococcus faecalis [33] = assay: Ratio of MBC to MIC for vancomycin-resistant Enterococcus faecalis ATCC 51299; assay type: functional
[34] = Selectivity index, ratio of compound effect for human Caco2 cells at maximum non-toxic concentration concentration to MIC for methicillin-resistant Staphylococcus epidermidis NRS101; assay type: toxicity; settings: Caco-2 cells, read-out: Selectivity Index
[35] = Selectivity index, ratio of compound effect for human Caco2 cells at maximum non-toxic concentration concentration to MIC for vancomycin-resistant Enterococcus faecium ATCC 700221; assay type: toxicity; settings: Caco-2 cells, read-out: Selectivity Index
[36] = Selectivity index, ratio of compound effect for human Caco2 cells at maximum non-toxic concentration concentration to MIC for methicillin-resistant Streptococcus pneumoniae ATCC 700677; assay type: toxicity; settings: Caco-2 cells, read-out: Selectivity Index
[37] = Selectivity index, ratio of compound effect for human Caco2 cells at maximum non-toxic concentration concentration to MIC for cephalosporin-resistant Streptococcus pneumoniae ATCC 51916; assay type: toxicity; settings: Caco-2 cells, read-out: Selectivity Index
Staphylococcus aureus [38] = assay: Bactericidal activity against Staphylococcus aureus USA400 assessed as reduction in colony forming unit at 3 times MIC treated for 4 hrs followed by re-plating on tryptic soy agar plates at 37 degC for 18 to 20 hrs by broth microdilution assay; assay type: functional; parameters: scale not given: the % may be the effect or the level left

Structure (SMILES)	MIC (Staphylococcus aureus [1])	MBC (Staphylococcus aureus [2])	MBC (Streptococcus pneumoniae [3])	MBC (Staphylococcus aureus [4])	MBC (Staphylococcus aureus [5])	MBC (Enterococcus faecium [6])	MIC (Staphylococcus aureus [7])	MBC (Listeria monocytogenes [8])	MIC (Staphylococcus aureus [9])	MIC (Staphylococcus aureus [10])	MIC (Listeria monocytogenes [11])	Activity (Caco-2)	MBC (Staphylococcus aureus [12])	MBC (Staphylococcus aureus [13])	MIC (Streptococcus pneumoniae [14])	MBC (Staphylococcus aureus [15])	MBC (Streptococcus pneumoniae [16])	MIC (Staphylococcus aureus [17])	MIC (Staphylococcus aureus [18])	MIC (Enterococcus faecalis [19])	also measured
CCCCCCCCOc1ccc(-c2nc(C)c(-c3ccnc(NC(=N)N4CCN(C)CC4)n3)s2)cc1	8 µg/mL (≈ 15.3 µM)	16 µg/mL (≈ 30.7 µM)	32 µg/mL (≈ 61.3 µM)	32 µg/mL (≈ 61.3 µM)	16 µg/mL (≈ 30.7 µM)	16 µg/mL (≈ 30.7 µM)	16 µg/mL (≈ 30.7 µM)	8 µg/mL (≈ 15.3 µM)	16 to 32 µg/mL (≈ 30.7 to 61.3 µM)	0.78 µg/mL (≈ 1.5 µM)	4 µg/mL (≈ 7.67 µM)	Non-Toxic	16 µg/mL (≈ 30.7 µM)	8 µg/mL (≈ 15.3 µM)	32 µg/mL (≈ 61.3 µM)	16 µg/mL (≈ 30.7 µM)	32 µg/mL (≈ 61.3 µM)	16 µg/mL (≈ 30.7 µM)	16 µg/mL (≈ 30.7 µM)	16 µg/mL (≈ 30.7 µM)	MBC [20]: 8 µg/mL (≈ 15.3 µM); MBC (Staphylococcus aureus [21]): > 64 µg/mL; MIC (Enterococcus faecium [22]): 16 µg/mL (≈ 30.7 µM); MIC (Streptococcus pneumoniae [23]): 16 µg/mL (≈ 30.7 µM); MIC [24]: 8 µg/mL (≈ 15.3 µM); MBC (Enterococcus faecalis [25]): 64 µg/mL (≈ 123 µM); MBC (Staphylococcus aureus [26]): 32 µg/mL (≈ 61.3 µM); MIC (Staphylococcus aureus [27]): 16 µg/mL (≈ 30.7 µM)
CCCCCCCOc1ccc(-c2nc(C)c(-c3ccnc(NC(=N)N4CCN(C)CC4)n3)s2)cc1	8 µg/mL (≈ 15.8 µM)	8 µg/mL (≈ 15.8 µM)	16 µg/mL (≈ 31.5 µM)	8 µg/mL (≈ 15.8 µM)	8 µg/mL (≈ 15.8 µM)	8 µg/mL (≈ 15.8 µM)	8 µg/mL (≈ 15.8 µM)	8 µg/mL (≈ 15.8 µM)	8 µg/mL (≈ 15.8 µM)	0.78 µg/mL (≈ 1.54 µM)	4 µg/mL (≈ 7.88 µM)	Non-Toxic	8 µg/mL (≈ 15.8 µM)	8 µg/mL (≈ 15.8 µM)	16 µg/mL (≈ 31.5 µM)	8 µg/mL (≈ 15.8 µM)	16 µg/mL (≈ 31.5 µM)	8 µg/mL (≈ 15.8 µM)	8 µg/mL (≈ 15.8 µM)	8 µg/mL (≈ 15.8 µM)	Ratio (Listeria monocytogenes [28]): 1; selectivity ratio [29]: 7 to 82; Activity (Staphylococcus aureus [30]): 100%; Ratio (Staphylococcus aureus [31]): 1; selectivity ratio [32]: 7 to 82; Ratio (Enterococcus faecalis [33]): 1; selectivity ratio [34]: 7 to 82; selectivity ratio [35]: 7 to 82; selectivity ratio [36]: 7 to 82; MBC [20]: 8 µg/mL (≈ 15.8 µM); selectivity ratio [37]: 7 to 82; MBC (Staphylococcus aureus [21]): 8 µg/mL (≈ 15.8 µM); MIC (Enterococcus faecium [22]): 8 µg/mL (≈ 15.8 µM); MIC (Streptococcus pneumoniae [23]): 16 µg/mL (≈ 31.5 µM); MIC [24]: 8 µg/mL (≈ 15.8 µM); MBC (Enterococcus faecalis [25]): 16 µg/mL (≈ 31.5 µM); MBC (Staphylococcus aureus [26]): 8 µg/mL (≈ 15.8 µM); MIC (Staphylococcus aureus [27]): 8 µg/mL (≈ 15.8 µM); Activity (Staphylococcus aureus [38]): 100%
